The structures appear in SMILES notation. Read-outs that look alike come from different tables or passages of the source.

For data set [1], the system named is yeast Saccharomyces cerevisiae. As to conditions: for Ethanol concentration / Productivity / Yield: 15.0 mM; for viability at 10000 µM: Saccharomyces cerevisiae, read-out: Viable cells; for Fermentability (glucose consumption): acid spruce hydrolysate. How it is done:
A spruce slurry was prepared an subjected to acidic hydrolysis as described in Example 6. […] Sodium dithionite was added to different samples to concentrations of 2.5, 5, 7.5, 10, 12.5, and 15 mM. The treatments were performed at 21° C. for 5 min with stirring. In addition, treatments with 0.1% (7.9 mM) and 1% (79.3 mM) sodium sulphite were performed. […] Furthermore, a sugar solution (glucose 18 g/L, mannose 14 g/L) was prepared to evaluate if the effect of the sodium dithionite treatment was due to an effect on the hydrolysate or the ethanolic fermentation with yeast. Half of the sugar solution was treated with 10 mM sodium dithionite, whereas the rest was left untreated as a reference. The volumes of treated and untreated samples were equalized with water and the pH was adjusted to pH 5.5 prior to the fermentation. Fermentation was performed with the yeast Saccharomyces cerevisiae as described in the previous Examples.
Spruce hydrolysate samples were prepared as in Example 6.
Two samples were treated with DTT to 2 and 20 mM, respectively, two samples were treated with ascorbic acid to 10 and 100 mM, respectively and two samples were treated with glutathione to 1 and 10 mM, respectively.
The treatment time was 3 h for all samples and fermentation was performed as described in the previous Examples.

The conditions of data set [2]: acid spruce hydrolysate, 2.5-15 mM, Table 4.
Data set [3] relates to baker's yeast (Saccharomyces cerevisiae). The format is cell-based. As to conditions: for Ethanol production: FIG. 4; for Glucose consumption rates and amounts of ethanol produced: FIGS. 1 and 2. As to the method: The pH of the sugarcane bagass and spruce hydrolysates were adjusted to 5.5 with a 5 M solution of sodium hydroxide. The conditioning of each hydrolysate was performed in eight 100-mL glass vessels equipped with magnetic stirrer bars. 26 mL hydrolysate was added to all vessels, and the vessels were placed on a magnetic stirrer plate (IKA-Werke, Staufen, Germany). Sodium dithionite (chemical grade; >87%, Merck, Darmstadt, Germany) was added to hydrolysates in the concentrations 5 and 10 mM. Additions of sodium sulphite to 5 and 10 mM were also performed. The additions were made at room temperature (23° C.) and the samples were kept for 10 min with stirring. The experiments were performed in duplicates.
The efficiency of the additions of the reducing agents was compared with alkali detoxification.
Ethanol measurements were performed by using an enzymatic kit (Ethanol UV-method, Boehringer Mannheim GmbH, Mannheim, Germany). Fermentation experiments were performed to evaluate the effectiveness of the additions and treatments. For comparison, untreated hydrolysates were included in the fermentation experiments as well as reference fermentations of sugar-based medium with an amount of fermentable sugars (i.e. glucose and mannose) corresponding to that in the hydrolysate samples. The fermentations were carried out using baker's yeast (Saccharomyces cerevisiae) (Jästbolaget AB, Rotebro, Sweden). The yeast inoculum was prepared in 750-mL cotton-plugged shake flasks with 300 mL YEPD medium ([…], 2% D-glucose). The flasks were inoculated and incubated with agitation at 30° C. for approximately 12 h. The cells were harvested in the late exponential growth phase by centrifugation (Hermla Z206A, Hermle Labortechnik GmbH, Wehingen, Germany) at 1,500 g for 5 min. The cells were resuspended in an appropriate amount of sterile water to achieve an inoculum consisting of 2.0 g/L (cell dry weight) in all fermentation vessels. The fermentation was carried out in 14 25-mL glass flasks equipped with magnets for stirring and sealed with rubber plugs pierced with cannulas for letting out carbon dioxide. The hydrolysate samples (23.75 mL), or alternatively the sugar solution for reference fermentations, were added to the fermentation flasks along with 0.5 mL of a nutrient solution (150 g/L yeast extract, 75 g/L (NH4)2HPO4, 3.75 g/L MgSO4.7 H2O, 238.2 g/L NaH2PO4.H2O), and 0.75 mL of yeast inoculum. The flasks were incubated at 30° C. in a water bath with magnetic stirring (IKA-Werke). Samples for measurement of sugars and ethanol were withdrawn during the fermentation. The glucose levels during the fermentation were estimated by using a glucometer (Glucometer Elite XL, Bayer AG, Leverkusen, Germany).

Data set [4] deals with yeast Saccharomyces cerevisiae. Kind of data set: Fermentation of sugar solution with model inhibitor coniferyl aldehyde. Conditions: for viability at 10000 µM: Saccharomyces cerevisiae, read-out: Viable cells. As to the method: (§1) A sugar solution (glucose 18 g/L, mannose 14 g/L) with a coniferyl aldehyde concentration of 2.5 mM was prepared. Half of the solution was treated with 10 mM of sodium dithionite and the rest of the solution was left untreated as a reference. Fermentation was performed with the yeast Saccharomyces cerevisiae as described in the previous Examples.

The test system of data set [5] is yeast Saccharomyces cerevisiae. Kind of data set: Simultaneous saccharification and fermentation (SSF) of sugarcane bagass slurry. The format is cell-based. As to conditions: 7.5 and 10 mM, FIG. 9.
Description: SSF experiments were also performed with sugarcane bagass slurries. […] Reducing agents, dithionite and sulphite, respectively, were added 10 min prior to inoculum in concentrations of studied 7.5 and 10 mM. The ethanol concentration was measured after 13 and 45 hours according to the protocol described in Example 1.
Data set [6] in a line: Fermentation of sugar solution treated with sodium dithionite. The class given is cell-based. Conditions: Saccharomyces cerevisiae, Saccharomyces cerevisiae yeast cells in fermentation, read-out: Viable cells.
Data set [7] deals with yeast Saccharomyces cerevisiae. Kind of data set: Simultaneous saccharification and fermentation (SSF) of spruce slurry. The class given is cell-based. Conditions: for Ethanol concentration: after 70 hours; for Time after which ethanol formation leveled off / Ethanol production compared to the untreated hydrolysate: FIG. 5. How it is done: Addition of sodium dithionite and sodium sulphite was tested in an SSF process. Spruce was pretreated as described in Example 1 above. The spruce slurry was adjusted to pH 5.4 with a 5 M solution of sodium hydroxide. Ten 250-mL shake flasks equipped with magnetic stirrer bars were filled with 100 g of spruce slurry. Sodium dithionite or sodium sulphite was added to the slurries to final concentrations of 7.5 and 10 mM. The additions were performed at room temperature (23° C.) for 10 min with stirring. Duplicate experiments were made. Cellulase and cellobiase preparations were prepared and added to the slurry using the enzyme activity loadings as described in Example 1 above. Further, the yeast inoculum was prepared according to Example 1 above. Inoculums were added to give a start concentration of 2.0 g/L (cell dry weight) in every flask. No source of extra nutrients was added. For comparison, two flasks with spruce slurry to which no reducing agents had been added were included in the experiment. The flasks were incubated at 35° C. for 69 h in a water bath with magnetic stirring. The flasks were sealed with Parafilm (Pechiney Plastic Packaging Company, Chicago, Ill., USA) to prevent evaporation of ethanol. Samples were withdrawn for analysis of ethanol according to Example 1 above.
A spruce slurry was prepared according to Examples 1 and 2 above. Different flasks were filled with 100 g each of the spruce slurry and were subjected to a SSF process according to Example 2 above, but with different amounts of dithionite and sulphite added. The produced ethanol was monitored during the fermentation. […]

Data set [8] can be described thus: Fermentation of sugar solution with model inhibitor coniferyl aldehyde. As to conditions: Saccharomyces cerevisiae. How it is done:
as §1

[9] abbreviates: bagass hydrolysate, 6 h fermentation, 10 mM.
[10] abbreviates: bagass hydrolysate, 6 h fermentation.
Setting [11] is: spruce hydrolysate, 14 h fermentation, 10 mM.

As to `O=S([O-])S(=O)[O-].[Na+].[Na+]` [Dithionite, Sodium dithionite], the Ethanol concentration was 5.07 g/L in data set [1] (2.75 h); 9.81 g/L in data set [1] (4.25 h); 14.59 g/L in data set [1] (6.25 h); 15.47 g/L in data set [1] (9.25 h); “about 10 g/L” in data set [7] (2.5 mM); 35 to 40 g/L in data set [7] (5 mM). Further, the Ethanol concentration entry in data set [7] (7.5 mM) is “highest ethanol production”; in data set [7] (10 mM) it was “highest ethanol production”; in data set [7] (15 mM) it was “highest ethanol production”; in data set [7] (20 mM), 35 to 40 g/L; in data set [7] (30 mM) it was “about 30 g/L”. Besides, the Productivity is 1.84 g EtOH × L^−1 × h^−1 in data set [1] (2.75 h); 2.31 g EtOH × L^−1 × h^−1 in data set [1] (4.25 h); 2.33 g EtOH × L^−1 × h^−1 in data set [1] (6.25 h); 1.67 g EtOH × L^−1 × h^−1 in data set [1] (9.25 h); 3.9 g EtOH × L^−1 × h^−1 in data set [3] (setting [9]); 2.5 g EtOH × L^−1 × h^−1 in data set [3] (setting [11]). In addition, the Yield was 0.37 g EtOH/g consumed glucose and mannose in data set [1] (2.75 h); 0.44 g EtOH/g consumed glucose and mannose in data set [1] (4.25 h); 0.47 g EtOH/g consumed glucose and mannose in data set [1] (6.25 h); 0.49 g EtOH/g consumed glucose and mannose in data set [1] (9.25 h); 0.34 g EtOH/g consumed glucose & mannose in data set [3] (setting [9]); 0.37 g EtOH/g consumed glucose & mannose in data set [3] (setting [11]). The viability at 10000 µM in data set [1] (2.25 h) stood at 91%; in data set [1] (7 h), 96.7 ± 2.5%; in data set [4] (2.25 h) it was 76.7%; in data set [4] (7 h) it was 75 ± 8%. The “Fermentability (glucose consumption)” value in data set [1] (15 mM, FIG. 11) is “fermented about as well as the NH4OH treated sample and the plain sugar solution”; in data set [1] (2.5-15 mM, FIG. 10) it was “improved fermentability”. Further, in data set [2], the Degradation of monosaccharide entry was “No significant degradation”. Further, the Balanced ethanol yield is listed as 0.28 g EtOH/Σglucose & mannose prior to detoxification in data set [3] (setting [9]) and 0.34 g EtOH/Σglucose & mannose prior to detoxification in data set [3] (setting [11]). Besides, the Ethanol production entry in data set [3] (setting [10]) is on record as “high ethanol production”. For the same molecule, the “Glucose consumption rates and amounts of ethanol produced” value in data set [3] (spruce hydrolysate, 5 mM) is reported as “substantial improvement”; in data set [3] (spruce hydrolysate, 10 mM), “comparable to those of the reference fermentation”. Moreover, in data set [4] (sugar solution with coniferyl aldehyde (2.5 mM), sodium dithionite 10 mM, FIG. 12), the Glucose consumption rate result was “much higher”. For the same molecule, in data set [5], the “Fermentability (ethanol production after 13 and 45 hours)” value is on record as “improved fermentability”. In data set [6] (pH 5.5, fermentation time 2.25 h), the viability at 2.25 h, 10 mM is 80.8 ± 4.5%. Further, the viability at 7 h, 10 mM in data set [6] (pH 5.5, fermentation time 7 h) turned out to be 84.3 ± 2.9%. In addition, the “Time after which ethanol formation leveled off” value in data set [7] (10 mM) was “about 45 h”. In data set [7] (10 mM, FIG. 8), the “Improvement of ethanol production, dithionite versus sulphite” value is reported as “better improvement than the addition of sulphite”. Also, the “Ethanol production compared to the untreated hydrolysate” value in data set [7] (7.5 and 10 mM) was “higher ethanol production”.
As for `O=S([O-])[O-].[Na+].[Na+]` [Sulphite, sodium sulphite], the “Fermentability (glucose consumption)” value in data set [1] (1% (79.3 mM), FIG. 11) is recorded as “better fermentability compared to the untreated hydrolysate”. In addition, the figures for the Balanced ethanol yield in data set [3] (setting [9]) and in data set [3] (setting [11]) were 0.21 g EtOH/Σglucose & mannose prior to detoxification and 0.16 g EtOH/Σglucose & mannose prior to detoxification, respectively. Further, the Productivity is recorded as 2.9 g EtOH × L^−1 × h^−1 in data set [3] (setting [9]) and 1.2 g EtOH × L^−1 × h^−1 in data set [3] (setting [11]). Besides, the Yield in data set [3] (setting [9]) is 0.32 g EtOH/g consumed glucose & mannose; in data set [3] (setting [11]), 0.29 g EtOH/g consumed glucose & mannose. Besides, the Ethanol production result in data set [3] (setting [10]) was “high ethanol production”. For the same molecule, the “Glucose consumption rates and amounts of ethanol produced” value in data set [3] (spruce hydrolysate, 10 mM) was “substantial improvement”. Besides, in data set [5], the “Fermentability (ethanol production after 13 and 45 hours)” value is on record as “improved fermentability”. The Ethanol concentration result in data set [7] (2.5 mM) is “did not result in as high final ethanol concentrations”; in data set [7] (5 mM), “did not result in as high final ethanol concentrations”; in data set [7] (7.5 mM) it was 35 to 40 g/L; in data set [7] (10 mM) it was 35 to 40 g/L; in data set [7] (15 mM), “about 40 g/L”; in data set [7] (20 mM), “about 40 g/L”. In addition, in data set [7] (30 mM), the Ethanol concentration entry is listed as “about 40 g/L”. The “Ethanol production compared to the untreated hydrolysate” value in data set [7] (7.5 and 10 mM) was “higher ethanol production”. Further, the “Time after which ethanol formation leveled off” value in data set [7] (7.5 and 10 mM) was 20 h.
Take `COc1cc(/C=C/C=O)ccc1O` [coniferyl aldehyde, reference compound]: the Glucose consumption result in data set [4] (sugar solution with coniferyl aldehyde (2.5 mM), untreated, FIG. 12) is “approximately no reduced glucose concentration”. In data set [8], this molecule displayed a viability at 2.25 h, 2.5 mM of 1.7% and a viability at 7 h, 2.5 mM of 0%.

For the origin of these results see patent US8815499B2, “In situ detoxification of fermentation inhibitors with reducing agents” (priority 2009, dated 2014).
